According to PubChem BioAssay AID330 (DTP/NCI, 2004):
Several values for one entry are separate records, joined by “and”; a condition that tells them apart may be missing. Equal entries are not always repeated. Toxic doses and inconclusive results are not listed.

Test system: P388 leukemia ip, CD2F1 mice, survival T/C
Test: NCI In Vivo Anticancer Drug Screen. Data for tumor model P388 Leukemia (intraperitoneal) in CD2F1 (CDF1) mice
Conditions: endpoint: median survival time, higher = longer survival
Method in brief: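 Mice carrying the transplanted tumor received test compound or vehicle. Survival was recorded in each group, and the value is the treated-group measurement divided by that of the vehicle-treated control group.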

[1] = dose: 50.0 mg/kg/injection, schedule: Q01DX005 (ip), vehicle: saline with Tween-80
[2] = dose: 100.0 mg/kg/injection, schedule: Q01DX005 (ip), vehicle: saline with Tween-80
[3] = dose: 200.0 mg/kg/injection, schedule: Q01DX005 (ip), vehicle: saline with Tween-80
[4] = dose: 50.0 mg/kg/injection, schedule: Q01DX005 (ip), vehicle: Klucel (hydroxypropylcellulose) (HPC)
[5] = dose: 100.0 mg/kg/injection, schedule: Q01DX005 (ip), vehicle: Klucel (hydroxypropylcellulose) (HPC)
[6] = dose: 200.0 mg/kg/injection, schedule: Q01DX005 (ip), vehicle: Klucel (hydroxypropylcellulose) (HPC)
[7] = dose: 50.0 mg/kg/injection, schedule: Q01DX005 (ip), vehicle: saline
[8] = dose: 100.0 mg/kg/injection, schedule: Q01DX005 (ip), vehicle: saline
[9] = dose: 200.0 mg/kg/injection, schedule: Q01DX005 (ip), vehicle: saline
[10] = dose: 12.5 mg/kg/injection, schedule: Q01DX005 (ip), vehicle: saline with Tween-80
[11] = dose: 25.0 mg/kg/injection, schedule: Q01DX005 (ip), vehicle: saline with Tween-80
[12] = dose: 100.0 mg/kg/injection, schedule: Q01DX001 (ip), vehicle: Klucel (hydroxypropylcellulose) (HPC)
[13] = dose: 200.0 mg/kg/injection, schedule: Q01DX001 (ip), vehicle: Klucel (hydroxypropylcellulose) (HPC)
[14] = dose: 400.0 mg/kg/injection, schedule: Q01DX001 (ip), vehicle: Klucel (hydroxypropylcellulose) (HPC)
[15] = dose: 200.0 mg/kg/injection, schedule: Q01DX009 (ip), vehicle: saline with Tween-80

Cn1c(=O)c2[nH]c(CN(CCCl)CCCl)nc2n(C)c1=O
T/C (dose: 0.66 mg/kg/injection, schedule: Q01DX009 (ip), vehicle: saline with Tween-80): 109 % of control | T/C (dose: 1.0 mg/kg/injection, schedule: Q01DX009 (ip), vehicle: saline with Tween-80): 115 % of control | T/C (dose: 6.6 mg/kg/injection, schedule: Q04DX003 (ip), vehicle: saline with Tween-80): 95 % of control | T/C (dose: 10.0 mg/kg/injection, schedule: Q04DX003 (ip), vehicle: saline with Tween-80): 113 % of control | T/C (dose: 12.5 mg/kg/injection, schedule: Q01DX009 (ip), vehicle: saline with Tween-80): 263 % of control | T/C (dose: 12.5 mg/kg/injection, schedule: Q04DX003 (ip), vehicle: saline with Tween-80): 150 % of control | T/C (dose: 25.0 mg/kg/injection, schedule: Q01DX009 (ip), vehicle: saline with Tween-80): 219 % of control | T/C (dose: 25.0 mg/kg/injection, schedule: Q04DX003 (ip), vehicle: saline with Tween-80): 163 % of control | T/C (dose: 50.0 mg/kg/injection, schedule: Q04DX003 (ip), vehicle: saline with Tween-80): 218 % of control

COc1cccc2c1C(=N)c1c(O)c3c(c(O)c1C2=O)CC(O)(C(=O)CO)CC3OC1CC(N2CCOCC2C#N)C(O)C(C)O1 (stereo unspecified)
T/C (dose: 0.25 mg/kg/injection, schedule: Q04DX003 (ip), vehicle: saline): 117 % of control | T/C (dose: 0.5 mg/kg/injection, schedule: Q04DX003 (ip), vehicle: saline): 157 % of control | T/C (dose: 1.0 mg/kg/injection, schedule: Q04DX003 (ip), vehicle: saline): 111 % of control and 97 % of control

Nc1ccc(N=Nc2cccc3c2Oc2ccccc2O3)c(N)n1
T/C [1]: 98 % of control | T/C [2]: 91 % of control | T/C [3]: 105 % of control

CCCCCCN(CCCCCC)CC(O)c1ccc(Br)c2ccccc12 (stereo unspecified)
T/C [1]: 93 % of control | T/C [2]: 93 % of control | T/C [3]: 88 % of control

O=C(Nc1ccccc1C(=O)OCCCl)NN1CCCCCC1
T/C [4]: 107 % of control | T/C [5]: 100 % of control | T/C [6]: 98 % of control

O=C1C=CC(O)C2OC12 (stereo unspecified)
T/C (dose: 5.0 mg/kg/injection, schedule: Q04DX002 (ip), vehicle: saline): 111 % of control | T/C (dose: 10.0 mg/kg/injection, schedule: Q04DX002 (ip), vehicle: saline): 113 % of control

CNNC(=O)OC
T/C (dose: 25.0 mg/kg/injection, schedule: Q01DX002 (ip), vehicle: saline): 101 % of control | T/C (dose: 50.0 mg/kg/injection, schedule: Q01DX002 (ip), vehicle: saline): 102 % of control | T/C (dose: 100.0 mg/kg/injection, schedule: Q01DX002 (ip), vehicle: saline): 120 % of control

COC(=O)C(CC(C)C)NC(=O)C(Cc1cnc[nH]1)NC(=O)C(CS)N(C(=O)OCc1ccccc1)C(=O)OCc1ccccc1 (stereo unspecified)
T/C [1]: 99 % of control | T/C [2]: 98 % of control | T/C [3]: 100 % of control

CNC(=O)OCC1(OC(=O)NC)OC(COC(=O)NC)(OC(=O)NC)C(OC(=O)NC)C1OC(=O)NC (stereo unspecified)
T/C [7]: 104 % of control | T/C [8]: 91 % of control | T/C [9]: 101 % of control

Cc1cc(N)c(C)c2ccncc12
T/C (dose: 0.63 mg/kg/injection, schedule: Q01DX009 (ip), vehicle: saline with Tween-80): 100 % of control | T/C (dose: 1.25 mg/kg/injection, schedule: Q01DX009 (ip), vehicle: saline with Tween-80): 90 % of control | T/C (dose: 2.5 mg/kg/injection, schedule: Q04DX003 (ip), vehicle: saline with Tween-80): 104 % of control

CN1C(=O)C2C(C1=O)[C@H]1c3ccccc3C=CN1[C@@H]2C(=O)c1ccccc1 (stereo partly specified)
T/C (dose: 60.0 mg/kg/injection, schedule: Q01DX005 (ip), vehicle: saline with Tween-80): 93 % of control | T/C (dose: 120.0 mg/kg/injection, schedule: Q01DX005 (ip), vehicle: saline with Tween-80): 90 % of control | T/C (dose: 240.0 mg/kg/injection, schedule: Q01DX005 (ip), vehicle: saline with Tween-80): 90 % of control

C=C1CC2(CC(C(=C)C)CC=C2C)OC1=O (stereo unspecified)
T/C (dose: 100.0 mg/kg/injection, schedule: Q01DX001 (ip), vehicle: saline): 101 % of control | T/C (dose: 200.0 mg/kg/injection, schedule: Q01DX001 (ip), vehicle: saline): 104 % of control | T/C (dose: 400.0 mg/kg/injection, schedule: Q01DX001 (ip), vehicle: saline): 109 % of control

O=C(CC(O)c1ccccc1)Sc1ccccc1 (stereo unspecified)
T/C (dose: 25.0 mg/kg/injection, schedule: Q04DX003 (ip), vehicle: Klucel (hydroxypropylcellulose) (HPC)): 100 % of control | T/C (dose: 50.0 mg/kg/injection, schedule: Q04DX003 (ip), vehicle: Klucel (hydroxypropylcellulose) (HPC)): 100 % of control | T/C (dose: 100.0 mg/kg/injection, schedule: Q04DX003 (ip), vehicle: Klucel (hydroxypropylcellulose) (HPC)): 95 % of control

N=C(N)SCc1ccc2nsnc2c1
T/C [10]: 98 % of control | T/C [11]: 100 % of control | T/C [1]: 98 % of control and 102 % of control

CC(=O)C1CCN(CN2CCC(C(C)=O)CC2)CC1
T/C (dose: 25.0 mg/kg/injection, schedule: Q01DX005 (ip), vehicle: saline): 101 % of control | T/C [7]: 110 % of control | T/C [8]: 97 % of control

CC1(C)C=CC(=O)C=C1C#N
T/C [12]: 92 % of control | T/C [13]: 104 % of control | T/C [14]: 106 % of control

CN=NN/C1=C/CCCCCC1
T/C (dose: 15.0 mg/kg/injection, schedule: Q01DX005 (ip), vehicle: Klucel + Tween-80): 105 % of control | T/C (dose: 30.0 mg/kg/injection, schedule: Q01DX005 (ip), vehicle: Klucel + Tween-80): 113 % of control | T/C (dose: 60.0 mg/kg/injection, schedule: Q01DX005 (ip), vehicle: Klucel + Tween-80): 111 % of control and 117 % of control

CCCCC(SC(CC)(C(C)=O)c1ccccc1)C(N)=O (stereo unspecified)
T/C (dose: 50.0 mg/kg/injection, schedule: Q01DX009 (ip), vehicle: saline with Tween-80): 91 % of control | T/C (dose: 100.0 mg/kg/injection, schedule: Q01DX009 (ip), vehicle: saline with Tween-80): 90 % of control | T/C [15]: 88 % of control | T/C (dose: 400.0 mg/kg/injection, schedule: Q01DX009 (ip), vehicle: saline with Tween-80): 90 % of control

C/C(=N\NC(=O)Cc1ccccc1)C(=O)O
T/C [4]: 100 % of control | T/C [5]: 89 % of control | T/C [6]: 94 % of control

O=C(O)CNCCCNCC(=O)O
T/C [7]: 94 % of control | T/C [8]: 88 % of control | T/C [9]: 99 % of control

O=c1[nH]c2cc(Cl)ccc2n1C1CCN(CCCC(c2ccc(F)cc2)c2ccc(F)cc2)CC1
T/C (dose: 6.25 mg/kg/injection, schedule: Q01DX005 (ip), vehicle: saline with Tween-80): 106 % of control | T/C [10]: 110 % of control | T/C [11]: 110 % of control

NC(=S)c1cccc(OCCCOc2ccccc2)c1
T/C [4]: 96 % of control | T/C [5]: 91 % of control

COc1cc(Br)c(C(=O)N2CCCc3ccccc32)cc1OC
T/C (dose: 12.5 mg/kg/injection, schedule: Q01DX009 (ip), vehicle: other): 101 % of control | T/C (dose: 25.0 mg/kg/injection, schedule: Q01DX009 (ip), vehicle: other): 94 % of control | T/C (dose: 50.0 mg/kg/injection, schedule: Q01DX009 (ip), vehicle: other): 91 % of control | T/C (dose: 100.0 mg/kg/injection, schedule: Q01DX009 (ip), vehicle: other): 91 % of control | T/C (dose: 200.0 mg/kg/injection, schedule: Q01DX009 (ip), vehicle: other): 94 % of control

Clc1ccc(C2N3Cc4ccccc4CN2c2ccccc23)cc1
T/C [12]: 100 % of control | T/C [13]: 98 % of control | T/C [14]: 96 % of control

CCOCN(COCC)c1ccc(Cl)cc1
T/C [15]: 164 % of control

O=C1CS/C(=N\C(=O)Nc2ccc(Cl)c(Cl)c2)N1
T/C (dose: 6.25 mg/kg/injection, schedule: Q01DX009 (ip), vehicle: saline): 91 % of control | T/C (dose: 12.5 mg/kg/injection, schedule: Q01DX009 (ip), vehicle: saline): 100 % of control | T/C (dose: 25.0 mg/kg/injection, schedule: Q01DX009 (ip), vehicle: saline): 94 % of control | T/C (dose: 50.0 mg/kg/injection, schedule: Q01DX009 (ip), vehicle: saline + alcohol): 88 % of control | T/C (dose: 100.0 mg/kg/injection, schedule: Q01DX009 (ip), vehicle: saline + alcohol): 91 % of control | T/C (dose: 200.0 mg/kg/injection, schedule: Q01DX009 (ip), vehicle: saline + alcohol): 88 % of control
